Experimental data published in patent US20230293526A1, “METHOD FOR TREATING CANCER WITH A REVERSE TRANSCRIPTASE INHIBITOR” (PrimeFour Therapeutics, Inc., priority 2020, published 2023).

Tests used:
Assay in all cases: Cell proliferation CellTiterGlo Ex.2
Format in all cases: cell-based
BT-20 = settings: Homo sapiens; BT-20 (Breast), 72 h
Method: (§1) A dose response relationship on cell proliferation was assessed for Compound 13 on 140 tumor cell lines. Briefly, compound treatment of cells started one day after seeding with a final DMSO concentration of 0.100, and was performed by nanodrop-dispensing using a Tecan Dispenser. 0.10% DMSO (solvent) and Staurosporine (10 μM) served as high control (10000 viability) and low control (000 viability), respectively. Compound 13 was tested at 10, 3, 1, 0.3, 0.1, 0.03, 0.01, and 0.003 μM.
(§2) Cells were cultured in the appropriate media. For the assays, cells were seeded in white cell culture-treated flat and clear bottom multiwell plates and incubated at 37° C. overnight before compound was added. After incubation for 72 h at 37° C. at 5% or 10% CO2 dependent on the medium, cell plates were equilibrated to room temperature for one hour, CellTiterGlo reagent (Promega) was added and luminescence was measured approximately an hour later using a luminometer.
(§3) Raw data were converted into percent cell viability relative to the high and low control, which were set to 10000 and 000, respectively.

OCI-AML5 = settings: Homo sapiens, OCI-AML-5; OCI-AML5 (Blood), 72 h
Method: as §1, §2, §3

HCC38 = settings: Homo sapiens; HCC38 (Breast), 72 h
Method: as §1, §2, §3

T-47D = settings: Homo sapiens, T47D; T-47D (Breast), 72 h
Method: as §1, §2, §3

OCI-LY19 = settings: Homo sapiens; OCI-LY19 (Blood), 72 h
Method: as §1, §2, §3

SJSA-1 = settings: Homo sapiens; SJSA-1 (Bone), 72 h
Method: as §1, §2, §3

H2228 = settings: Homo sapiens, NCI-H2228; H2228 (Lung), 72 h
Method: as §1, §2, §3

JIMT-1 = settings: Homo sapiens; JIMT-1 (Breast), 72 h
Method: as §1, §2, §3

MOLT-4 = settings: Homo sapiens; MOLT-4 (Blood), 72 h
Method: as §1, §2, §3

EFM-192A = EFM-192A (Breast), 72 h
Method: as §1, §2, §3

HCT116 = settings: Homo sapiens, HCT-116; HCT116 (Colon), 72 h
Method: as §1, §2, §3

NCI-H838 = settings: Homo sapiens; NCI-H838 (Lung), 72 h
Method: as §1, §2, §3

SK-N-SH = settings: Homo sapiens; SK-N-SH (Brain), 72 h
Method: as §1, §2, §3

T98G = settings: Homo sapiens; T98G (Brain), 72 h
Method: as §1, §2, §3

KG-1 a = settings: Homo sapiens; KG-1 a (Blood), 72 h
Method: as §1, §2, §3

SK-N-FI = settings: Homo sapiens; SK-N-FI (Brain), 72 h
Method: as §1, §2, §3

NCI-H2110 = NCI-H2110 (Lung), 72 h
Method: as §1, §2, §3

JVM-3 = settings: Homo sapiens; JVM-3 (Blood), 72 h
Method: as §1, §2, §3

SW948 = settings: Homo sapiens; SW948 (Colon), 72 h
Method: as §1, §2, §3

A549 = settings: Homo sapiens; A549 (Lung), 72 h
Method: as §1, §2, §3

HCT-15 = settings: Homo sapiens; HCT-15 (Colon), 72 h
Method: as §1, §2, §3

SNU-216 = SNU-216 (Stomach), 72 h
Method: as §1, §2, §3

Kato III = settings: Homo sapiens; Kato III (Stomach), 72 h
Method: as §1, §2, §3

U118MG = settings: Homo sapiens, U-118-MG; U118MG (Brain), 72 h
Method: as §1, §2, §3

SiHa = settings: Homo sapiens; SiHa (Cervix), 72 h
Method: as §1, §2, §3

A375 = settings: Homo sapiens, A-375; A375 (Skin), 72 h
Method: as §1, §2, §3

HCC202 = HCC202 (Breast), 72 h
Method: as §1, §2, §3

EFM-19 = settings: Homo sapiens; EFM-19 (Breast), 72 h
Method: as §1, §2, §3

A172 = settings: Homo sapiens, A 172; A172 (Brain), 72 h
Method: as §1, §2, §3

NCI-H441 = settings: Homo sapiens; NCI-H441 (Lung), 72 h
Method: as §1, §2, §3

Caki-1 = settings: Homo sapiens; Caki-1 (Kidney), 72 h
Method: as §1, §2, §3

OV56 = OV56 (Ovary), 72 h
Method: as §1, §2, §3

EPLC-272H = settings: Homo sapiens; EPLC-272H (Lung), 72 h
Method: as §1, §2, §3

NCI-H82 = settings: Homo sapiens; NCI-H82 (Lung), 72 h
Method: as §1, §2, §3

C#C[C@]1(CO)O[C@@H](n2cnc3c(=O)[nH]c(N)nc32)C[C@@H]1O [compound 13]
IC50 (BT-20): > 10 µM | IC50 (OCI-AML5): 1.37 µM | IC50 (HCC38): 6.37 µM | IC50 (T-47D): > 10 µM | IC50 (OCI-LY19): 0.56 µM | IC50 (SJSA-1): 6.44 µM | IC50 (H2228): > 10 µM | IC50 (JIMT-1): 7 µM | IC50 (MOLT-4): 0.51 µM | IC50 (EFM-192A): > 10 µM | IC50 (HCT116): 5.84 µM | IC50 (NCI-H838): > 10 µM | IC50 (SK-N-SH): 6.47 µM | IC50 (T98G): > 10 µM | IC50 (KG-1 a): 5.86 µM | IC50 (SK-N-FI): > 10 µM | IC50 (NCI-H2110): 3.41 µM | IC50 (JVM-3): 2.45 µM | IC50 (SW948): 5.02 µM | IC50 (A549): > 10 µM | IC50 (HCT-15): > 10 µM | IC50 (SNU-216): 1.74 µM | IC50 (Kato III): 4.86 µM | IC50 (U118MG): 5.74 µM | IC50 (SiHa): 2.45 µM | IC50 (A375): 2.37 µM | IC50 (HCC202): > 10 µM | IC50 (EFM-19): 2.65 µM | IC50 (A172): > 10 µM | IC50 (NCI-H441): 3.64 µM | IC50 (Caki-1): 9.76 µM | IC50 (OV56): 1.99 µM | IC50 (EPLC-272H): 6.63 µM | IC50 (NCI-H82): 6.46 µM
